The target of one assay is T1, human M4 receptor (Homo sapiens, UniProt P08173).
T1 construct: expressed in transfected cells; host or cells: CHO-K1 cells (membranes)
T1 sequence (P08173 1-479): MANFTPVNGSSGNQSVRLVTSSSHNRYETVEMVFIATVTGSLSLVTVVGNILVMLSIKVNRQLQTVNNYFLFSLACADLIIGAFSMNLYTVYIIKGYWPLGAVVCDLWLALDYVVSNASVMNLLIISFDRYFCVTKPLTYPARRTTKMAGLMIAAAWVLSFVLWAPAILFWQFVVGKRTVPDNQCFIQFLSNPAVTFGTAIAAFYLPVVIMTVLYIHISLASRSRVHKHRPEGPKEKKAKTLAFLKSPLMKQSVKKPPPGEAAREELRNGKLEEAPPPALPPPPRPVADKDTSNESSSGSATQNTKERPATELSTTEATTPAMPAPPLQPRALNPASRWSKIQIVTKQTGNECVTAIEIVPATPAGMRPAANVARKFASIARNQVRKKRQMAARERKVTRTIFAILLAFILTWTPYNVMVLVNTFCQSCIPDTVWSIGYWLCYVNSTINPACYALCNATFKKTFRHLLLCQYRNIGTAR
Briefly: M4 GTPγS PAM assay (CHO-K1 membranes, 35S-GTP binding, with EC20 acetylcholine). Format: biochemical. To be noted: with EC20 acetylcholine (40 nM). An outline of the steps:
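Membranes from CHO-K1 cells stably expressing human M4 ([…]) in 20 mM HEPES, 10 mM MgCl2, 100 mM NaCl, with 0.1 μM GDP final, were preincubated with compound 10-15 min at RT. Acetylcholine at EC20 (40 nM final) was added for 10-15 min, then 0.4 nM 35S-GTP solution for 1 h at RT. Filter-bound radioactivity was counted.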

The next assay has as its target T2, rM4 receptors (Rattus norvegicus, UniProt P08485).
T2 construct: expressed in transfected cells; host or cells: CHO cells
T2 sequence (P08485 1-478): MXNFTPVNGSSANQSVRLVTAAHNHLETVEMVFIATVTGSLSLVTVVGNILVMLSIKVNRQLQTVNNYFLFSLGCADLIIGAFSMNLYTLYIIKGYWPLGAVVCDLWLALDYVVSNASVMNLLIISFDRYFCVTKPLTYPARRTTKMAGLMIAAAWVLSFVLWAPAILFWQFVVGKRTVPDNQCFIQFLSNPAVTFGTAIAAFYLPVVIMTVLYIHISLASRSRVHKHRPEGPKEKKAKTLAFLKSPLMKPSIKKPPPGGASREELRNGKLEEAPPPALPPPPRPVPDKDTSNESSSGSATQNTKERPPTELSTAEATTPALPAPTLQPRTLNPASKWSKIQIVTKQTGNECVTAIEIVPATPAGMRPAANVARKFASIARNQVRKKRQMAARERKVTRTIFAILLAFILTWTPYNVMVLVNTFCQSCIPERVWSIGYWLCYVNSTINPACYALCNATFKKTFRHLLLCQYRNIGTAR
Nature of the assay: Rat M4 PAM PERK assay (CHO cells, TR-FRET, with EC20 acetylcholine). It counts as cell-based. In a few lines:
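CHO cells expressing human or rat M4, serum-starved 4 h, then given compound (10-point, 10 μM top, ½-log) with EC20 acetylcholine (10 nM final) for 5 min at 37 °C. Lysates assayed for phospho-ERK by TR-FRET after 2 h detection at RT.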
(In general: Time-resolved FRET reads energy transfer from a long-lived donor to a nearby acceptor.)

Bounds are passed on as bounds.

The term EC50 denotes the concentration giving half of the maximal effect. Higher therefore signals weaker potency.

As to `Cc1cc(=O)n(C)c2c1CN(C(=O)CC1CN(c3cc(F)cc(C4CC4)c3)C1)C2` [Compound I-4], the half-maximal effective concentration (EC50) on human M4 receptor was less than 50 nM; at rM4 receptors, 50 to 200 nM.
The corresponding values for `Cc1cc(=O)n(C)c2c1CN(C(=O)CC1CN(c3cccc(F)c3F)C1)C2` [Compound I-14] are 50 to 200 nM and 200 to 1000 nM.
The corresponding values for `Cc1c2c(n(C)c(=O)c1C)CN(C(=O)CC1CN(c3ccnc(C(F)(F)F)c3)C1)C2` [Compound I-42, 1,3,4-Trimethyl-6-(2-(1-(2-(trifluoromethyl)pyridin-4-yl)azetidin-3-yl)acetyl)-1,5,6,7-tetrahydro-2H-pyrrolo[3,4-b]pyridin-2-one] are less than 50 nM and 50 to 200 nM.
`Cc1c2c(n(C)c(=O)c1F)CN(C(=O)CC1CN(c3ccc(C4CC4)c(F)c3)C1)C2` [Compound I-88]: the EC50 at human M4 receptor and on rM4 receptors was less than 50 nM in each case.

These data come from patent US20260209220A1, “SUBSTITUTED TETRAHYDROPYRROLO-PYRIDINONE COMPOUNDS AND THEIR USE IN TREATING MEDICAL CONDITIONS” (Karuna Therapeutics, Inc., priority 2022, published 2026).
